In publication doi:10.1101/2024.05.17.594634, “Protein Structure Inspired Drug Discovery” (bioRxiv, 2024):

Experiments:
Format in all cases: cell-based, human
H226 lung cancer cells = test: Eight-day colony formation assay, H226
Procedure: (§1) We sought to identify compounds that would inhibit the growth of cancer cells, but that also did so selectively. Inhibition of cancer cell growth is a highly sought after attribute of anticancer agents. This was assessed by measuring the ability of a compound to inhibit cell growth in eight-day colony formation assays, examining concentrations ranging from 0.017 to 40 μM. Breast, colon, lung and prostate cancer are four of the most common causes of cancer in the United States, are major causes of cancer cell death, and were examined.[64] Two cell lines for each cancer type were assessed: A549 (adenocarcinoma) and H226 (squamous carcinoma) for lung, MCF-7 (estrogen receptor [ER] positive) and MDA-MB-231 (ER negative) for breast, LNCaP (androgen receptor [AR] positive) and PC3-M (AR negative) for prostate, and HCT116 (wild type p53, mutated KRAS) and HT29 (p53 mutant) for colon.[65]
(§2) In considering effect on cancer cells, for each compound and each cell line tested we calculated the efficacy ratio, i.e., efficacy ratio = (percent of remaining cancer cell colonies)/(percent of remaining bone marrow colonies), at 8 days after treatment with 40 μM compound (S4 Fig). We considered those with an efficacy ratio below 0.5 as active and at least partially selective. The stringency of this is highlighted by considering the effect of 5FU on colon cancer, where it is frequently used clinically in proven curative settings, as well as proven life prolonging settings.[70, 71] […] Even at 5.7 μM, where 5FU is toxic to bone marrow, with hematopoietic colony formation at 38% of control, the efficacy ratio for HT29 cells has only dropped to 0.52. […] It can be seen that compounds segregate to protein sites. Specifically, of 10 compounds meeting this activity criteria (i.e., efficacy ratio <0.5), 3 were directed at the Dxr2 site, 3 at FolC2, 2 at FolC1, 1 at Dxr1 and 1 at TYLT.
(§3) Eight-day colony formation assays of cancer cells were performed as described by us.[87] Briefly, 0.5–1.0 × 10^3 cells were seeded into a 12 well plate, after 24 hours compound added and eight days later colonies (of 3 or more cells) were scored after trypan blue staining. Conditions were in replicates of N = 2. All compounds were stored under desiccated conditions in a sealed container at minus 20°C upon arrival. One day prior to use, they were placed into DMSO, stored at […] as stock solutions, thawed just prior to use, and not reused.

[1] = test system: MCF-7 breast cancer cells; test: Eight-day colony formation assay, MCF-7
Procedure: as §1, §2, §3

M14 cells = test: Western blot for cleaved caspase 3, M14; settings: 3 days, up to 10 μM
Procedure: Fig 8. Dxr2-017 inhibits melanoma cell growth through induction of anoikis. (A) Inhibition of melanoma cell growth. Cells were treated with different concentrations of Dxr2-017 and formation of colonies at eight days depicted. Data are expressed as percent of untreated control and are the mean ± SEM (N=3 replicates) of a single experiment. (B) No effect on cycle progression. M14 and SK-MEL-5 cells were treated for 8 days with 20 and 50 nM Dxr2-017, respectively, and phase of cell cycle determined by flow cytometry. Data are the mean ± SEM (N=3). *denotes P-value ≤0.05. (C) Transition to floating cells. Cells were treated for three days with different Dxr2-017 concentrations. Depicted are representative light photomicrographs at 20X; scale bar is150 μm. Blue and green arrows denote adherent and floating cells, respectively. (D) Cleaved caspase 3 is induced in floating cells. Cells were treated for 3 days, cell lysate from only adherent cells, or from adherent and floating cells combined, was probed by Western blot for cleaved caspase 3. All experiments were repeated at separate times, yielding similar results.
We then assessed whether Dxr2-017 was inducing apoptosis. […] These findings raised the possibility that Dxr2-017 was inducing anoikis, a process in which programmed cell death occurs upon cell detachment.[72, 73] […]

## c1ccc2sc(-c3ccc(CNc4ccc5nnnn5n4)o3)nc2c1 [Dxr2-017]
H226 lung cancer cells; 5.7 μM
  efficacy ratio (cancer cell colonies to bone marrow colonies at 8 days): 0.12
H226 lung cancer cells; 40 μM
  efficacy ratio (cancer cell colonies to bone marrow colonies at 8 days): 0.02
[1]; 5.7 μM
  efficacy ratio (cancer cell colonies to bone marrow colonies at 8 days): 0.39
[1]; 40 μM
  efficacy ratio (cancer cell colonies to bone marrow colonies at 8 days): 0.02
M14 cells
  cleaved caspase 3, adherent cells only: did not detect any induction of cleaved caspase 3
  cleaved caspase 3, floating and adherent cells combined: clear formation
